Experimental data as given in patent publication US20230416261A1, “ETHANEDIAMINE-HETEROCYCLE DERIVATIVES AS INHIBITORS OF PROTEIN ARGININE METHYLTRANSFERASES” (Board of Regents, The University of Texas System, priority 2021, published 2023).

How the values were obtained:
PRMT1 [1] = biological target: T1, PRMT1 (Homo sapiens, UniProt Q99873); assay: PRMT1 RKO Cellular Target Engagement Assay (In-Cell Western, asymmetric di-methyl arginine); assay type: cell-based; conditions: RKO cells, 48 hr compound incubation; read-out: RKO IC50 (PRMT-1 Target Engagement)
Experimental: RKO cells were routinely maintained in EMEM media (ATCC, Catalog #30-2003) supplemented with 10% fetal bovine serum (Sigma, Catalog #F2442) using a humidified incubator (37° C., 5% CO2, and ambient O2).
In preparation for the In-Cell Western assay, cells were harvested and resuspended in EMEM media supplemented with 10% fetal bovine serum. Cells were seeded onto a 384 well, black, clear bottom, Poly-D-Lysine coated tissue culture plate (Greiner, Catalog #781946) at a density of 1,000 cells/well in a volume of 40 μL. The culture plate was incubated for 24 hr at 37° C. with 5% CO2 and ambient O2. Stock solutions of the test compounds were prepared in 100% DMSO (Sigma, Catalog #D2650) and serially diluted 1:3 using 100% DMSO. Compounds were additionally diluted 1:40 in culture medium, and 10 μL/well was transferred to the tissue culture plate. Following the compound addition the microplate was incubated at 37° C. for 48 hr.
The media was removed, the plate was washed with 1× PBS (Fisher Bioreagents, Catalog #BP399-20), and cells were fixed for 10 min using 30 μL/well of 4% paraformaldehyde (Electron Microscopy Sciences, Catalog #15710). The paraformaldehyde was removed, the plate was again washed with 1× PBS, and cells were permeabilized for 15 min using 30 μL/well of 1× PBS containing 0.5% Triton-X 100 (Sigma, Catalog #1001748095). The permeabilization buffer was removed, the plate was washed with 1× PBST (Boston BioProducts, Catalog #IBB-171X), and 50 μL/well of blocking buffer (LI-COR, Catalog #927-40000) was added followed by a 1 hour incubation at room temperature. The blocking buffer was removed, and 20 μL/well of anti-asymmetric di-methyl arginine antibody (Cell Signaling, Catalog #13522S) diluted 1:1000 in LI-COR blocking buffer was added to the plate and incubated overnight, in the dark at 4° C.
The primary antibody was then removed, and the plate was washed three times with 1× PBST. 20 μL/well of CellTag (LI-COR, Catalog #926-41090) and IRDye 800CW goat anti-rabbit IgG antibody (LI-COR, Catalog #926-32211), each diluted 1:500 in LI-COR blocking buffer supplemented with 0.1% Tween-20 (Thermo Scientific, Catalog #85114), were added to the plate. The plate was then incubated in the dark, at room temperature for 1 hour followed by three washes with 1× PBST and one wash with H2O. The IRDye secondary antibody signal (800 channel) and the CellTag signal (700 channel) were measured using a Licor Odyssey Imager, and the 800 channel signal was then normalized to the 700 channel signal. IC50 values were calculated using a four-parameter logistic curve fit using Genedata Screener software.

DOHH2 cells = assay: DOHH2 Long Term Phenotypic Assay (7 days, Cell Titer-Glo viability); assay type: cell-based; conditions: Cell Titer-Glo 2.0
Experimental: DOHH2 cells were kindly provided by Michael Green (MDACC). The cells were routinely maintained in RPMI-1640 Medium (ATCC, Catalog #30-2001) supplemented with 10% fetal bovine serum (Sigma, Catalog #F2442), 100 units/mL penicillin and 100 μg/mL streptomycin (Gibco, Catalog #15140-122) in a humidified incubator (37° C., 5% CO2). Cells were seeded onto a white, CulturPlate-384 (Perkin Elmer, catalog #6007680) at a density of 250 cells per well in a volume of 50 μL. Stock solutions of the test compounds were prepared in 100% DMSO (Sigma, Catalog #D2650) and serially diluted 1:3 using 100% DMSO. Compounds were additionally diluted 1:33 in culture medium, and 10 μL/well was transferred to the tissue culture plate. Following the compound addition, the plate was incubated at 37° C. and 5% CO2 for 7 days. Cells were then mixed and a 30 μL volume was removed. Viability was assessed by a 30 μL addition of Cell Titer-Glo 2.0 (Promega, catalog #G9243). The plate was then shaken on an orbital shaker at 300 RPM for 10 minutes at room temperature, in the dark. Luminescence was measured using a PerkinElmer Envision™ plate reader. IC50 values were calculated using a four-parameter logistic curve fit using Genedata Screener software.

PRMT1 [2] = biological target: T1, PRMT1; assay: PRMT1 Enzymatic Assay (LANCE TR-FRET, methylation of histone H4 at Arg3); assay type: biochemical; set-up: purchased SignalChem P365-380G; conditions: PRMT1 1.5 nM, SAM 1 μM, biotinylated histone H4 (1-21) 25 nM; read-out: PRMT-1 IC50
Experimental: In order to measure PRMT1 enzymatic activity the LANCE TR-FRET assay from PerkinElmer was used to follow the methylation of histone H4 at Arg3 using S-adenosyl-L-methionine (SAM) as the methyl group donor.
This enzymatic assay was performed in a 384 well, white, low volume plate (PerkinElmer, Catalog 6008289) with assay buffer consisting of 50 mM Hepes (pH 8) (Teknova, Catalog #H1090), 1 mM TCEP (Sigma, Catalog #C4706), and 0.003% Tween-20 (Thermo, Catalog #85114). Stock solutions of the test compounds were prepared in 100% DMSO (Sigma, Catalog #D2650) and serially diluted 1:3 using 100% DMSO. Compounds were additionally diluted 1:40 in assay buffer, and 2 uL/well were transferred to the assay plate. 4 uL/well (final concentration 1.5 nM) of PRMT1 protein (SignalChem, Catalog #P365-380G) diluted in assay buffer was added to the assay plate followed by a 15 min preincubation at room temperature. 4 uL/well of SAM (Sigma, Catalog #A7007) and biotinylated histone H4 (1-21) (AnaSpec, Catalog #62555) (final concentrations 1 μM and 25 nM, respectively) diluted in assay buffer were then added to the assay plate followed by a 1 hour reaction time. Final concentrations of PRMT1, SAM, and histone H4 (1-21) refer to a […].
Detection of methylated histone H4 (H4R^3me) was achieved by combining LANCE Ultra Europium-anti-H4R^3me antibody (PerkinElmer, Catalog #TRF04-14), LANCE Ultra ULight-anti-streptavidin antibody (PerkinElmer, Catalog #TRF0102), and sinefungin (Sigma, Catalog #S8559) (final concentrations 2 nM, 50 nM, and 100 μM respectively) in 1× LANCE detection buffer (PerkinElmer, Catalog #CR97-100) and adding L/well of the detection solution to the assay plate. Detection reagents were allowed to react for 1 hour at room temperature. Final concentrations in the detection solution refer to a L volume. The europium fluorescence signal and the ULight TR-FRET signal were measured using a BioTek Synergy Neo plate reader: excitation at 330 nm, emission at 620 nm and 665 nm respectively, and the ratio of the two signals (665 nm/620 nm) was used for curve fitting. IC50 values were calculated using a four-parameter logistic curve fit using Genedata Screener software.

T1 sequence (Q99873 whole entry): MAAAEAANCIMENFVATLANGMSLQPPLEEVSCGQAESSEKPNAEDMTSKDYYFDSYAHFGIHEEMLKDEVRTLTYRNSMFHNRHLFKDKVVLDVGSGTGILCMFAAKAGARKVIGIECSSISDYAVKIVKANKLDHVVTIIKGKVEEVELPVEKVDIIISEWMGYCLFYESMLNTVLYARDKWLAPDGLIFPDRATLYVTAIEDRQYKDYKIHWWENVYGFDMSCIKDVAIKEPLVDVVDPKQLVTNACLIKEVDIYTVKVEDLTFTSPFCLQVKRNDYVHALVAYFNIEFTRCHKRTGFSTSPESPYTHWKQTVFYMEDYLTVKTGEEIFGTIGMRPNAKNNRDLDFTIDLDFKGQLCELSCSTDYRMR

IC50 (PRMT1 [1]) [µM]	IC50 (PRMT1 [2]) [µM]	SMILES	IC50 (DOHH2 cells; Homo sapiens, DOHH-2, 168 h) [µM]	IC50 (DOHH2 cells) [µM]
10	0.058	CNCCN(C)Cc1nn2c(c1C1CCC(COC)(COC)CC1)CN(C(=O)C1CCCCC1)CC2 [Example 51, (3-(4,4-bis(methoxymethyl)-cyclohexyl)-2-((methyl(2-(methylamino)ethyl)amino)-methyl)-6,7-dihydropyrazolo-[1,5-a]pyrazin-5(4H)-yl)-(cyclohexyl)methanone]	0.075	
0.534	0.07	CCC(C)C(=O)N1CCn2nc(CN(C)CCNC)c(C3CCC(COC)(COC)CC3)c2C1 (stereo not drawn) [Example 65, 1-(3-(4,4-bis(methoxy-methyl)cyclohexyl)-2-((methyl(2-(methylamino)-ethyl)amino)methyl)-6,7-dihydropyrazolo[1,5-a]-pyrazin-5(4H)-yl)-2-methylbutan-1-one]	0.134	
0.273	0.075	CCC1(C(=O)N2CCn3nc(CN(C)CCNC)c(C4CCC(COC)(COC)CC4)c3C2)CCC1 [Example 67, (3-(4,4-bis(methoxymethyl)-cyclohexyl)-2-((methyl(2-(methylamino)ethyl)amino)-methyl)-6,7-dihydropyrazolo-[1,5-a]pyrazin-5(4H)-yl)(1-ethylcyclobutyl)methanone]	0.156	
0.367	0.133	CNCCN(C)Cc1nn2c(c1C1CCC(COC)(COC)CC1)CN(C(=O)C1CCC1(F)F)CC2 (stereo not drawn) [Example 81, (3-(4,4-bis(methoxymethyl)-cyclohexyl)-2-((methyl(2-(methylamino)ethyl)amino)-methyl)-6,7-dihydropyrazolo-[1,5-a]pyrazin-5(4H)-yl)(2,2-difluorocyclobutyl)-methanone]	0.296	
0.267	0.08	CNCCN(C)Cc1nn2c(c1C1CCC(COC)(COC)CC1)CN(C(=O)C1(C)CCCO1)CC2 (stereo not drawn) [Example 57, (3-(4,4-bis(methoxymethyl)-cyclohexyl)-2-((methyl(2-(methylamino)ethyl)amino)-methyl)-6,7-dihydropyrazolo-[1,5-a]pyrazin-5(4H)-yl)(2-methyltetrahydrofuran-2-yl)-methanone]	0.17	
0.392	0.054	CNCCN(C)Cc1nn2c(c1C1CCC(COC)(COC)CC1)CN(C(=O)C1CCC(F)(F)C1)CC2 (stereo not drawn) [Example 56, (3-(4,4-bis(methoxymethyl)-cyclohexyl)-2-((methyl(2-(methylamino)ethyl)amino)-methyl)-6,7-dihydropyrazolo-[1,5-a]pyrazin-5(4H)-yl)(3,3-difluorocyclopentyl)-methanone]	0.083	
0.177	0.048	CNCCN(C)Cc1nn2c(c1C1CCC(COC)(COC)CC1)CN(C(=O)C(C)(C)F)CC2 [Example 59, 1-(3-(4,4-bis(methoxy-methyl)cyclohexyl)-2-((methyl(2-(methylamino)-ethyl)amino)methyl)-6,7-dihydropyrazolo[1,5-a]-pyrazin-5(4H)-yl)-2-fluoro-2-methylpropan-1-one]	0.113	
0.363	0.086	CNCCN(C)Cc1nn2c(c1C1CCC(COC)(COC)CC1)CN(C(=O)C1(C)CCOC1)CC2 (stereo not drawn) [Example 76, (3-(4,4-bis(methoxymethyl)-cyclohexyl)-2-((methyl(2-(methylamino)ethyl)amino)-methyl)-6,7-dihydropyrazolo-[1,5-a]pyrazin-5(4H)-yl)(3-methyltetrahydrofuran-3-yl)-methanone]	0.094	
0.254	0.084	CNCCN(C)Cc1nn2c(c1C1CCC(COC)(COC)CC1)CN(C(=O)C1CC(C)(C)C1)CC2 [Example 77, (3-(4,4-bis(methoxymethyl)-cyclohexyl)-2-((methyl(2-(methylamino)ethyl)amino)-methyl)-6,7-dihydropyrazolo-[1,5-a]pyrazin-5(4H)-yl)(3,3-dimethylcyclobutyl)-methanone]		0.202
0.203	0.103	CNCCN(C)Cc1nn2c(c1C1CCC(COC)(COC)CC1)CN(C(=O)C(C)(C)COC)CC2 [Example 54, 1-(3-(4,4-bis(methoxy-methyl)cyclohexyl)-2-((methyl(2-(methylamino)-ethyl)amino)methyl)-6,7-dihydropyrazolo[1,5-a]-pyrazin-5(4H)-yl)-3-methoxy-2,2-dimethylpropan-1-one]	0.293	
1.11	0.07	CNCCN(C)Cc1nn2c(c1C1CCC(COC)(COC)CC1)CN(C(C)=O)CC2 [Example 55, 1-(3-(4,4-bis(methoxy-methyl)cyclohexyl)-2-((methyl(2-(methylamino)-ethyl)amino)methyl)-6,7-dihydropyrazolo[1,5-a]-pyrazin-5(4H)-yl)ethan-1-one]	0.296	
0.958	0.052	CNCCN(C)Cc1nn2c(c1C1CCC(COC)(COC)CC1)CN(C(=O)C1CC(C(F)F)C1)CC2 (stereo not drawn) [Example 66, (3-(4,4-bis(methoxymethyl)-cyclohexyl)-2-((methyl(2-(methylamino)ethyl)amino)-methyl)-6,7-dihydropyrazolo-[1,5-a]pyrazin-5(4H)-yl)(3-(difluoromethyl)cyclobutyl)-methanone]	0.15	
0.688	0.217	CNCCN(C)Cc1nn2c(c1C1CCC(COC)(COC)CC1)CN(C(=O)C1CCC(C)(C)O1)CC2 (stereo not drawn) [Example 79, (3-(4,4-bis(methoxymethyl)-cyclohexyl)-2-((methyl(2-(methylamino)ethyl)amino)-methyl)-6,7-dihydropyrazolo-[1,5-a]pyrazin-5(4H)-yl)(5,5-dimethyltetrahydrofuran-2-yl)methanone]	0.303	
